Molecular target: mushroom tyrosinase
Experiment: L-DOPA oxidation (dopachrome, […] nm) inhibition assay with Lineweaver-Burk kinetics
Format: biochemical

Compound	IC50
C[C@@H]1O[C@@H](O[C@@H]2[C@@H](O)[C@H](OCCc3ccc(O)c(O)c3)O[C@H](CO)[C@H]2OC(=O)/C=C/c2ccc(O)c(O)c2)[C@H](O)[C@H](O)[C@H]1O [compound 8, 2-(3,4-dihydroxyphenyl)ethyl-1-O-α-L-rhamnopyranosyl-(1→3)-(4-O-Ε-caffeoyl)-β-D-glucopyranoside]	22.7 ± 2.83 µM
O=C1C(O)Oc2ccccc2N1O (centres unmarked) [compound 1, 2,4-dihydroxy-1,4-benzoxazin-3-one]	27.2 ± 3 µM
